Test results as given in patent US20220040255A1, “CHEMOTHERAPEUTIC REMODELING OF THE GUT MICROBIOME” (THE SCRIPPS RESEARCH INSTITUTE, priority 2018, published 2022).
Where a SMILES comes first, the peptide text is derived from it. [ ]: non-standard residue; d: D form.

Legend:
Format in all cases: in vivo, LDLr−/− mice
[1] = plasma cholesterol and lipoprotein profile; details: for reduction in cholesterol in the CHD mice: CHD-fed mice; for HDL-cholesterol levels / levels of VLDL and LDL / reduction of plasma total cholesterol compared to the untreated WD group: WD; for HDL-cholesterol levels / levels of VLDL and LDL: peptide-treated animals; for reduction of plasma total cholesterol compared to the untreated WD group: two-week time point, oral administration
Method: Animals and diets. LDL receptor-null (LDLr^−/−) mice on a C57BL/6J background were initially purchased from Jackson Laboratories (Bar Harbor, Me.) and were bred in house. Unless otherwise noted, all experiments were performed with 8-12 weeks old LDLr^−/− female mice. For studies involving analysis of the gut microbiome, the mice were rotated between cages and co-housed with the mice from different groups for at least one week before the beginning of each study to reduce the variation in the composition of gut microbiome caused by the housing environment. The mice were weaned at 4 weeks of age and were fed ad libitum a standard chow diet (Harlan Teklad 7019) until they were 10-weeks old, when they were switched to a high-fat diet (WD) containing 15.8% (wt/wt) fat, 1.25% (wt/wt) cholesterol, and no cholate (Harlan Teklad 94059). At the time that the WD was started, the cyclic peptide was added to the drinking water at a dose of 180 μM and the mice (female, n=8 per dosing group) were continued on WD for 10 weeks. The lyophilized peptide was dissolved in PBS (pH 7.4) containing 1% sucrose, resulting in a clear solution. The drinking water solution was replaced with fresh solution daily for c[wLwReQeR] (SEQ ID NO:11) or every other day for c[wLwKhShK] (SEQ ID NO:1). A control group of eight mice (female, n=8) was fed WD and provided vehicle (PBS with 1% sucrose) drinking water. The mice consumed approximately 4.0 mL of water per day per mouse, and there was no significant difference in water or food consumption between groups. All procedures involving live animals were approved by the Scripps Research Institute Institutional Animal Care and Use Committee.
Measurement of plasma cholesterol and liver enzyme activities. The mice were bled after an overnight fast after 2 and 10 weeks of treatment. The plasma samples were used to determine lipoprotein profiles and the levels of cholesterol, alanine aminotransferase (ALT), and aspartate aminotransferase (AST). Measurements of plasma levels of cholesterol, ALT, and AST were performed as described in Zhao et al., ACS Cent. Sci. 3, 639-646, 2017. Briefly, plasma was separated from whole blood immediately by centrifugation of the blood samples at 5,000 rpm for 10 min at 4° C., and was then stored at −80° C. Plasma total cholesterol was measured using an enzymatic fluorometric method kit (Amplex® red cholesterol assay kit, No. A12216, Life Technologies) according to the manufacturer's instructions. Plasma ALT and AST concentrations were measured using Infinity ALT (GPT) and AST (GOT) liquid stable assays, respectively, which are colorimetric kinetic assays (Thermo Scientific). Assays were performed in accordance with the manufacturer's recommendations, adjusting the reagent volumes (20 μL plasma+200 μL reagent, 0.69 cm light pathlength of the solution in the well) for analysis of samples in 96-well flat-bottom microplate format.
Plasma lipoprotein profile. Pooled plasma (240 μL total, 30 μL from each, n=8 fasted mice per group) from the two-week blood draw was used for fast protein liquid chromatography (FPLC) analysis. Lipoproteins were separated by using 3 Superdex 200 10/30 columns connected in series (GE Healthcare). The plasma was centrifuged at 11,000 rpm for 10 min at room temperature to remove particulates (floating material was gently mixed into liquid before removing the supernatant for FPLC injection). 200 μL of the pooled plasma was injected on the system eluted with 10 mM tris-HCl buffer, pH 7.4, containing 1 mM EDTA and 150 mM NaCl; a flow rate of 0.5 ml/min and fraction size of 0.5 mL were used.

atherosclerotic lesions = experiment: analysis of atherosclerosis (whole aorta en face, aortic sinus); details: completion of the 10-week study
Method: Analysis of atherosclerosis. Atherosclerotic lesion severity was assessed in the aortae as previously described. Briefly, at euthanasia, animals were perfused with PBS, followed by 4% formaldehyde (10% UltraPure EM Grade from Polysciences diluted in PBS, pH 7.2). For en face analysis, the entire mouse aorta was dissected from the proximal ascending aorta to the bifurcation of the iliac artery by using a dissecting microscope. Adventitial fat was removed, and the aorta was opened longitudinally, pinned flat onto black dissecting wax, stained with Sudan IV, and photographed at a fixed magnification. The photographs were digitized, and total aortic areas and lesion areas were calculated by using Adobe Photoshop and NIH Image J software. The results were reported as a percentage of the total aortic area that contained lesions.
As a second assessment of atherosclerosis, lesions of the aortic root (heart sinus) were analyzed^55. Utilizing stereological principles, lesion volume was estimated across a fixed distance of the aortic sinus. After 10 min fixation in 4% paraformaldehyde, hearts were cut at an angle perpendicular to the atria of the heart and embedded in OCT (Tissue-Tek). Frozen hearts were sectioned on a Leica cryostat, with 10-μm sections collected from the beginning of the aortic sinus (defined as when a valve leaflet became visible) to 500 μm below the beginning of the sinus. […] Sections were collected in duplicate at 50-μm intervals. Sections were stained with oil red O, counterstained with Gill hematoxylin 1 (Fischer Scientific International), photographed, and digitized for lesion analysis. Scoring of valve lesion areas was done for each of the 3 valve cusps individually. Lesion areas found only within the valve cusp were measured. […] Lesion volume was calculated from an integration of the measured cross-sectional areas. Prediction of the coefficient of error (CE) in approximating lesion volume was computed using the Cavalieri estimator derived from a covariogram analysis of an ordered set of estimates of cross-sectional areas. This yielded CE values of less than 10% that were acceptable for a stereological computation of lesion volume.

[2] = system: gut microbiota metabolites; experiment: fecal SCFA and amino acid measurements (LC-MS)
Method: SCFA and amino acid measurements. Fecal SCFA and amino acid content was measured by liquid chromatography-mass spectrometry (LC-MS). The fecal samples were weighed and placed into 2 ml Omni tubes. Ethanol was added to bring the volume to 350 μl. Next, 4 μl of 500 μM d-FA-mix and 20 μl of 1 mM 3CHPA were added to each sample as internal standard. The samples were homogenized using an Omni bead beater at the speed of 4.5 m/s for 30 sec, and then centrifuged at 13,000 rpm for 15 min. 90 μl of the supernatants was transferred into glass HPLC vials. 30 μl of freshly prepared 4×3NPH solution (160 mM 3-nitrophenylhydrazine, 150 mM EDC, pyridine 12% vol, 50% acetonitrile) was added to each sample and the reactions were held at room temperature for 30 min. 2 μl of the sample was injected into the LC-MS (Agilent 1290 HPLC, 6550 qTOF). The concentration of each SCFA and amino acid was calculated based on a standard curve and normalized by the internal control and the feces weight.

| SMILES | reduction in cholesterol in the CHD mice [1] | HDL-cholesterol levels [1] | levels of VLDL and LDL [1] | reduction of plasma total cholesterol compared to the untreated WD group [1] | reduction in atherosclerotic lesions, whole aorta lesion area (atherosclerotic lesions) | reduction of aortic sinus lesion volume (atherosclerotic lesions) | levels of fatty acids containing 4-6 carbons, including butyrate ([2]; fecal samples, two-week treatment) | levels of tryptophan and phenylalanine in the feces ([2]; feces, two-week course) |
| --- | --- | --- | --- | --- | --- | --- | --- | --- |
| CC(C)C[C@@H]1NC(=O)[C@@H](Cc2c[nH]c3ccccc23)NC(=O)[C@H](CCCCN)NC(=O)[C@@H](Cc2c[nH]cn2)NC(=O)[C@H](CO)NC(=O)[C@@H](Cc2c[nH]cn2)NC(=O)[C@H](CCCCN)NC(=O)[C@@H](Cc2c[nH]c3ccccc23)NC1=O [c[wLwKhShK]] (cyclo([dW]L[dW]K[dH]S[dH]K)) | no analogous peptide-mediated reduction | higher | marked reduction | 37% | 37% | 44% | – | – |
| CC(C)C[C@@H]1NC(=O)[C@@H](Cc2c[nH]c3ccccc23)NC(=O)[C@H](CCCNC(=N)N)NC(=O)[C@@H](CCC(=O)O)NC(=O)[C@H](CCC(N)=O)NC(=O)[C@@H](CCC(=O)O)NC(=O)[C@H](CCCNC(=N)N)NC(=O)[C@@H](Cc2c[nH]c3ccccc23)NC1=O [c[wLwReQeR]] (cyclo([dW]L[dW]R[dE]Q[dE]R)) | no analogous peptide-mediated reduction | higher | marked reduction | 36% | 48% | 37% | increased levels | higher levels |
